Laboratory results taken from patent publication US20100267561A1, “HERBICIDAL PYRIDAZINONE DERIVATIVES” (priority 2007, published 2010).

How the values were obtained:
Format in all cases: in vivo
[1] = system: large crabgrass (Digitaria sanguinalis); experiment: Test B pre-/postemergence plant response
Outline: (§1)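 Visual scoring from 0 (no effect) to 100 (complete control) against untreated controls was done 13 to 15 days after greenhouse treatment. Chemicals were formulated in a surfactant-containing non-phytotoxic solvent and applied to soil preemergence or to 1- to 4-leaf (2-18 cm) plants postemergence.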

[2] = system: giant foxtail (Setaria faberii); experiment: Test B pre-/postemergence plant response
Outline: as §1

[3] = system: eastern black (E.B.) nightshade (Solanum ptycanthum); experiment: Test B pre-/postemergence plant response; details: Preemergence; for Nightshade, E. B. plant response rating: scale 0 to 100
Outline: as §1

[4] = system: green foxtail (Setaria viridis); experiment: Test B pre-/postemergence plant response
Outline: as §1

[5] = system: pigweed (Amaranthus retroflexus); experiment: Test B pre-/postemergence plant response
Outline: as §1

[6] = system: woolly cupgrass (Eriochloa villosa); experiment: Test B pre-/postemergence plant response
Outline: as §1

corn (Zea mays) = experiment: Test B pre-/postemergence plant response
Outline: as §1

[7] = system: Russian thistle (Salsola iberica); experiment: Test B pre-/postemergence plant response; details: Preemergence; for Russian Thistle plant response rating: scale 0 to 100
Outline: as §1

[8] = system: downy bromegrass (Bromus tectorum); experiment: Test B pre-/postemergence plant response; details: for Bromegrass, Downy plant response rating: 8 g ai/ha
Outline: as §1

wild oat (Avena fatua) = experiment: Test B pre-/postemergence plant response
Outline: as §1

[9] = system: barnyardgrass (Echinochloa crus-galli); experiment: Test B flooded paddy test plant response
Outline: (§2)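 Paddy-water application to 2-leaf plants in pots held under 3 cm of flooding; response is a 0–100 visual control rating against controls after 13 to 15 days, and a dash marks a missing result.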

rice (Oryza sativa) = experiment: Test B flooded paddy test plant response
Outline: as §2

[10] = system: umbrella sedge (Cyperus difformis); experiment: Test B flooded paddy test plant response
Outline: as §2

[11] = system: ducksalad (Heteranthera limosa); experiment: Test B flooded paddy test plant response; details: Flood (flooded paddy test), scale 0 to 100, 0 no effect, 100 complete control
Outline: as §2

[12] = 8 g ai/ha, postemergence, 0-100 scale
[13] = Postemergence, 16 g ai/ha, scale 0 to 100
[14] = Postemergence, 31 g ai/ha, scale 0 to 100
[15] = Postemergence, 62 g ai/ha, scale 0 to 100, 0 no effect, 100 complete control
[16] = Preemergence, 31 g ai/ha, scale 0 to 100 (0 no effect, 100 complete control)
[17] = Preemergence, 62 g ai/ha, 0 to 100 scale, 0 no effect, 100 complete control
[18] = Preemergence, 8 g ai/ha, scale 0 to 100
[19] = Preemergence, 16 g ai/ha, scale 0 to 100
[20] = 31 g ai/ha, scale 0 to 100 (0 no effect, 100 complete control)
[21] = 62 g ai/ha, 0 to 100 scale, 0 no effect, 100 complete control
[22] = Flood (flooded paddy test), 62 g ai/ha, scale 0 to 100, 0 no effect, 100 complete control
[23] = Flood (flooded paddy test), 125 g ai/ha, scale 0 to 100, 0 no effect, 100 complete control
[24] = Flood (flooded paddy test), 250 g ai/ha, scale 0 to 100, 0 no effect, 100 complete control
[25] = Flood, 31 g ai/ha, scale 0 to 100

SMILES: Cc1cc(-c2ccc(Cl)cc2)nn1-c1c(OC(=O)OCC(C)C)cnn(C)c1=O [Compound 57]
- Crabgrass, Large plant response rating [1, 12]: 75
- Plant response rating, Crabgrass, Large [1, 13]: 95
- Plant response rating, Crabgrass, Large [1, 14]: 98
- Plant response rating, Crabgrass, Large [1, 15]: 100
- Plant response rating, Crabgrass, Large [1, 16]: 98
- Plant response rating, Crabgrass, Large [1, 17]: 100
- Crabgrass, Large plant response rating [1, 18]: 0
- Crabgrass, Large plant response rating [1, 19]: 0
- Foxtail, Giant plant response rating [2, 12]: 80
- Plant response rating, Foxtail, Giant [2, 13]: 95
- Plant response rating, Foxtail, Giant [2, 14]: 98
- Plant response rating, Foxtail, Giant [2, 15]: 100
- Plant response rating, Foxtail, Giant [2, 16]: 100
- Plant response rating, Foxtail, Giant [2, 17]: 100
- Foxtail, Giant plant response rating [2, 18]: 98
- Foxtail, Giant plant response rating [2, 19]: 98
- Plant response rating, Nightshade, E. B. [3, 20]: 0
- Plant response rating, Nightshade, E. B. [3, 21]: 0
- Nightshade, E. B. plant response rating ([3]; 8 g ai/ha): 0
- Nightshade, E. B. plant response rating ([3]; 16 g ai/ha): 0
- Foxtail, Green plant response rating [4, 12]: 80
- Plant response rating, Foxtail, Green [4, 13]: 95
- Plant response rating, Foxtail, Green [4, 14]: 100
- Plant response rating, Foxtail, Green [4, 15]: 100
- Plant response rating, Foxtail, Green [4, 16]: 100
- Plant response rating, Foxtail, Green [4, 17]: 100
- Foxtail, Green plant response rating [4, 18]: 70
- Foxtail, Green plant response rating [4, 19]: 100
- Pigweed plant response rating [5, 12]: 0
- Plant response rating, Pigweed [5, 13]: 0
- Plant response rating, Pigweed [5, 14]: 0
- Plant response rating, Pigweed [5, 15]: 0
- Plant response rating, Pigweed [5, 16]: 0
- Plant response rating, Pigweed [5, 17]: 0
- Pigweed plant response rating [5, 18]: 0
- Pigweed plant response rating [5, 19]: 0
- Cupgrass, Woolly plant response rating [6, 12]: 65
- Plant response rating, Cupgrass, Woolly [6, 13]: 90
- Plant response rating, Cupgrass, Woolly [6, 14]: 100
- Plant response rating, Cupgrass, Woolly [6, 15]: 100
- Plant response rating, Cupgrass, Woolly [6, 16]: 85
- Plant response rating, Cupgrass, Woolly [6, 17]: 100
- Cupgrass, Woolly plant response rating [6, 18]: 0
- Cupgrass, Woolly plant response rating [6, 19]: 20
- Corn plant response rating (corn (Zea mays); [12]): 0
- Plant response rating, Corn (corn (Zea mays); [13]): 0
- Plant response rating, Corn (corn (Zea mays); [14]): 98
- Plant response rating, Corn (corn (Zea mays); [15]): 100
- Plant response rating, Corn (corn (Zea mays); [16]): 85
- Plant response rating, Corn (corn (Zea mays); [17]): 95
- Corn plant response rating (corn (Zea mays); [18]): 0
- Corn plant response rating (corn (Zea mays); [19]): 60
- Plant response rating, Russian Thistle [7, 20]: 0
- Plant response rating, Russian Thistle [7, 21]: 0
- Russian Thistle plant response rating ([7]; 8 g ai/ha): 0
- Russian Thistle plant response rating ([7]; 16 g ai/ha): 0
- Bromegrass, Downy plant response rating ([8]; postemergence, 0-100 scale): 0
- Plant response rating, Bromegrass, Downy [8, 13]: 20
- Plant response rating, Bromegrass, Downy [8, 14]: 50
- Plant response rating, Bromegrass, Downy [8, 15]: 60
- Plant response rating, Bromegrass, Downy ([8]; Preemergence, 16 g ai/ha, scale 0 to 100 (0 no effect, 100 complete control)): 0
- Plant response rating, Bromegrass, Downy [8, 16]: 65
- Plant response rating, Bromegrass, Downy [8, 17]: 70
- Bromegrass, Downy plant response rating ([8]; Preemergence, scale 0 to 100): 0
- Oat, Wild plant response rating (wild oat (Avena fatua); [12]): 85
- Plant response rating, Oat, Wild (wild oat (Avena fatua); [13]): 85
- Plant response rating, Oat, Wild (wild oat (Avena fatua); [14]): 95
- Plant response rating, Oat, Wild (wild oat (Avena fatua); [15]): 98
- Plant response rating, Oat, Wild (wild oat (Avena fatua); [16]): 70
- Plant response rating, Oat, Wild (wild oat (Avena fatua); [17]): 80
- Oat, Wild plant response rating (wild oat (Avena fatua); [18]): 0
- Oat, Wild plant response rating (wild oat (Avena fatua); [19]): 60
- Plant response rating, Barnyardgrass [9, 22]: 0
- Plant response rating, Barnyardgrass [9, 23]: 0
- Plant response rating, Barnyardgrass [9, 24]: 0
- Plant response rating, Barnyardgrass [9, 25]: 0
- Plant response rating, Rice (rice (Oryza sativa); [22]): 0
- Plant response rating, Rice (rice (Oryza sativa); [23]): 10
- Plant response rating, Rice (rice (Oryza sativa); [24]): 15
- Plant response rating, Rice (rice (Oryza sativa); [25]): 0
- Plant response rating, Sedge, Umbrella [10, 22]: 65
- Plant response rating, Sedge, Umbrella [10, 23]: 75
- Plant response rating, Sedge, Umbrella [10, 24]: 80
- Plant response rating, Sedge, Umbrella [10, 25]: 45
- Plant response rating, Ducksalad ([11]; 62 g ai/ha): 0
- Plant response rating, Ducksalad ([11]; 125 g ai/ha): 0
- Plant response rating, Ducksalad ([11]; 250 g ai/ha): 70
